Results as given in BigSolDB 2.1.

C#C[C@]1(O)C=C[C@H]2[C@@H]3CCC4=CC(=O)CC[C@@H]4[C@H]3CC[C@@]21CC
solubility (mole fraction)
Conditions | 283.15 K | 288.15 K | 293.15 K | 298.15 K | 303.15 K | 308.15 K | 313.15 K | 318.15 K | 323.15 K
in 2-butanone | 0.00956 | 0.0114 | 0.0134 | 0.0159 | 0.0188 | 0.0221 | 0.0258 | 0.0302 | 0.0352
in acetone | 0.00379 | 0.00499 | 0.00654 | 0.00862 | 0.0113 | 0.0147 | 0.0189 | 0.024 | 0.0302
in acetonitrile | 0.00262 | 0.00306 | 0.00358 | 0.00418 | 0.00487 | 0.00566 | 0.00655 | 0.00754 | 0.00868
in ethanol | 0.00314 | 0.00387 | 0.00473 | 0.00577 | 0.00701 | 0.0085 | 0.0102 | 0.0123 | 0.0147
in ethyl acetate | 0.0146 | 0.0161 | 0.018 | 0.0194 | 0.0211 | 0.0228 | 0.0247 | 0.0264 | 0.0282
in isopropanol | 0.00155 | 0.00199 | 0.0026 | 0.00328 | 0.00413 | 0.00519 | 0.00648 | 0.00809 | 0.0101
in isopropyl acetate | 0.0174 | 0.0213 | 0.0259 | 0.031 | 0.0371 | 0.044 | 0.052 | 0.061 | 0.0711
in methanol | 0.00457 | 0.0055 | 0.00655 | 0.00777 | 0.00917 | 0.0108 | 0.0125 | 0.0145 | 0.0168
in n-butanol | 0.00395 | 0.00465 | 0.00549 | 0.00642 | 0.0075 | 0.00875 | 0.0102 | 0.0118 | 0.0136
in n-propanol | 0.00376 | 0.00461 | 0.0056 | 0.00678 | 0.00817 | 0.00979 | 0.0117 | 0.014 | 0.0166
in water | 6.83e-06 | 7.69e-06 | 8.93e-06 | 1.06e-05 | 1.23e-05 | 1.42e-05 | 1.62e-05 | 1.87e-05 | 2.16e-05
